Test [1] concerns Mycobacterium tuberculosis. Kind of test: Minimum inhibitory concentration against H37Ra stain of Mycobacterium tuberculosis using MABA method. The test is classed as functional. For orientation: Alamar Blue is a resazurin reagent that responds to reducing activity.
Test [2] has as its system Mycobacterium tuberculosis. Kind of test: Minimum inhibitory concentration against H37Rv stain of Mycobacterium tuberculosis using Agar Microdilution. The test is classed as functional.

≈ marks a conversion by molar mass, not a printed value.

This passage reports MIC results from ChEMBL document CHEMBL1142851, “An efficient synthesis of aryloxyphenyl cyclopropyl methanones: a new class of anti-mycobacterial agents” (2005).

With `COc1ccc(COc2ccc(C(O)C3CC3)cc2)cc1` (configuration not stated), the MIC – broadly, the smallest concentration in the dilution series that meets the test's criterion for growth inhibition – in test [1] was greater than 50 µg/mL; in test [2], 3.12 µg/mL (≈ 11 µM).
Turning to `Clc1ccccc1COc1ccc(CC2CC2)cc1`, the MIC in test [1] is greater than 25 µg/mL; in test [2], greater than 50 µg/mL.
Regarding `COc1ccc(COc2ccc(C(=O)C3CC3)cc2)cc1OC`, the results for the MIC in test [1] and in test [2] were 25 µg/mL (≈ 80 µM) and 12.5 µg/mL (≈ 40 µM), respectively.
In the same order, the values of `OC(c1ccc(OCc2cccnc2)cc1)C1CC1` (configuration not stated) are greater than 25 µg/mL and greater than 25 µg/mL.
For `OC(c1ccc(OCc2ccco2)cc1)C1CC1` (configuration not stated), the MIC in test [1] and in test [2] was greater than 25 µg/mL each time.
Take `OC(c1ccc(OCc2ccncc2)cc1)C1CC1` (configuration not stated): the minimal inhibitory concentration (MIC) in test [1] and in test [2] was greater than 25 µg/mL throughout.
Turning to `Fc1ccc(COc2ccc(CC3CC3)cc2)cc1`, the MIC in test [2] worked out at 12.5 µg/mL (≈ 48.8 µM).
On to `O=C(c1ccc(OCC2CCCC2)cc1)C1CC1`, for which the minimal inhibitory concentration (MIC) in test [1] was greater than 25 µg/mL; in test [2], 25 µg/mL (≈ 102 µM).
For the molecule `OC(c1ccc(OCc2ccccc2)cc1)C1CC1` (configuration not stated), the MIC was greater than 50 µg/mL in test [1] and 25 µg/mL (≈ 98.3 µM) in test [2].
`O=C(c1ccc(OCC2CCCCC2)cc1)C1CC1`: the MIC in test [1] and in test [2] was greater than 25 µg/mL in each case.
Consider `O=C(c1ccc(OCc2ccc(F)cc2)cc1)C1CC1`, for which the MIC in test [1] was greater than 25 µg/mL; in test [2], 12.5 µg/mL (≈ 46.2 µM).
For `OC(c1ccc(OCC2CCCC2)cc1)C1CC1` (configuration not stated), the MIC in test [1] was 25 µg/mL (≈ 101 µM); in test [2] it was 3.12 µg/mL (≈ 12.7 µM).
As for `COc1ccc(COc2ccc(CC3CC3)cc2)cc1OC`, the MIC was found to be 12.5 µg/mL (≈ 41.9 µM) in test [1] and 25 µg/mL (≈ 83.8 µM) in test [2].
On to `O=C(c1ccc(OCc2ccccc2Cl)cc1)C1CC1`, for which the MIC in test [1] is greater than 25 µg/mL; in test [2] it was 12.5 µg/mL (≈ 43.6 µM).
For `COc1ccc(COc2ccc(C(=O)C3CC3)cc2)cc1` the same measures were greater than 50 µg/mL and 12.5 µg/mL (≈ 44.3 µM).
As to `OC(c1ccc(OCc2ccccc2Cl)cc1)C1CC1` (configuration not stated), the MIC in test [1] was greater than 25 µg/mL.
On to `O=C(c1ccc(OCc2cccnc2)cc1)C1CC1`, for which the MIC in test [1] is greater than 25 µg/mL; in test [2] it was 25 µg/mL (≈ 98.7 µM).
In the same order, the values of `c1ccc(COc2ccc(CC3CC3)cc2)cc1` are greater than 50 µg/mL and 12.5 µg/mL (≈ 52.4 µM).
Regarding `OC(c1ccc(OCc2ccc(F)cc2)cc1)C1CC1` (configuration not stated), the MIC in test [1] came to 25 µg/mL (≈ 91.8 µM); in test [2] it was 6.25 µg/mL (≈ 23 µM).
On to `COc1ccc(COc2ccc(C(O)C3CC3)cc2)cc1OC` (configuration not stated), for which the MIC was 3.12 µg/mL (≈ 9.92 µM) in test [1] and greater than 50 µg/mL in test [2].
For the molecule `O=C(c1ccc(OCc2ccc(Cl)c(Cl)c2)cc1)C1CC1`, the MIC was greater than 25 µg/mL in test [1] and 25 µg/mL (≈ 77.8 µM) in test [2].
As to `COc1ccc(COc2ccc(CC3CC3)cc2)cc1`, the MIC is greater than 25 µg/mL in test [1] and 25 µg/mL (≈ 93.2 µM) in test [2].
For `c1cncc(COc2ccc(CC3CC3)cc2)c1` the same measures were greater than 25 µg/mL and 25 µg/mL (≈ 104 µM).
In the same order, the values of `O=C(c1ccc(OCCc2ccco2)cc1)C1CC1` are 25 µg/mL (≈ 97.5 µM) and 25 µg/mL (≈ 97.5 µM).
With `O=C(c1ccc(OCc2ccccc2)cc1)C1CC1`, the MIC in test [1] was determined as 25 µg/mL (≈ 99.1 µM); in test [2] it was 6.25 µg/mL (≈ 24.8 µM).
For the molecule `O=C(c1ccc(OCc2ccncc2)cc1)C1CC1`, the MIC in test [1] is greater than 25 µg/mL; in test [2] it was 12.5 µg/mL (≈ 49.3 µM).
As for `O=C(c1ccc(OCc2ccc(Cl)cc2)cc1)C1CC1`, the MIC is greater than 25 µg/mL in test [1] and 25 µg/mL (≈ 87.2 µM) in test [2].
